Where two headings read alike, the source gives them in different places.
Tests used:
[1] = target: MetAP-2 (Homo sapiens, UniProt P50579); conditions: Griffith et al.; cited from earlier work
[2] = tested on: human colon cancer; conditions: Tanaka et al., 1995; cited from earlier work
[3] = tested on: OVCA 429 cells; conditions: for 429: increased sensitivity to cis-platin: OVCA 429 cells with specific siRNA
[4] = tested on: MetAP-2; conditions: several different cell types; Wang et al., 2000; cited from earlier work
[5] = tested on: MetAP-2 messenger RNA; test: siRNA knockdown, quantitative real-time PCR; conditions: OVCA 429 (FIG. 44)
Description: The reaction mixture was then incubated at 42° C. for 60 minutes. cDNA dilutions from 1:4 to 1:256 were prepared. […] Green PCR Master Mix (Qiagen), 0.3 μM of forward primer, 0.3 μM of reverse primer, and RNase free water were added to a final volume of 45 μl.
Sequence detection was determined using the ABI Prism 7700 (Applied Biosystems, Inc., Foster City, Calif.) sequence detection system or the MJ Research (Waltham, Mass.) Opticon II system as follows: PCR initial activation step was carried out for 15 minutes at 95° C.; samples were denatured for 15 seconds at 94° C., annealed for 30 seconds at 53° C. (55° C. when the Opticon II system was used), and extended for 30 seconds at 72° C. (data was acquired during this step); the PCR reaction was repeated for 50 cycles. A melting curve analysis was prepared by adding on the following steps: 15 seconds at 95° C., 20 seconds at 60° C., and 20 seconds at 95° C.
The siRNA experiments described herein were conducted using the siPORT Lipid protocol (Ambion). […]
Cells were transfected with the siRNA constructs following instruction from the supplier (Ambion). […] The OD260 readings of siRNA were performed in duplicate at a 1:100 dilution. The readings were averaged, then multiplied by the dilution factor and then by multiplied by 40 (the OD260of 1 is equal to 40 μg/ml of RNA) to get the final concentration of siRNA in μg/ml. […]

[6] = tested on: OVCAR-3 cells; test: MTT assay, cis-platin sensitivity with siRNA; type: cell-based, human; conditions: OVCAR-3 cells with specific siRNA
[7] = tested on: NM23-D (BC004880); test: siRNA-mediated knockdown of gene expression; type: cell-based, human; conditions: OVCA 429 cells
[8] = tested on: RNPS1 (AF015608); test: siRNA-mediated knockdown of gene expression; type: cell-based, human; conditions: ovarian cancer cell lines
[9] = tested on: S100A11 message; test: siRNA knockdown of gene expression; type: cell-based, human; conditions: OVCA 429 (FIG. 57)
[10] = tested on: SAPK/Erk1 (L36870); test: siRNA-mediated knockdown of gene expression; type: cell-based, human; conditions: ovarian cancer cell lines
[11] = tested on: SRB1/CLA1/CD3611 (BCO22087); test: siRNA-mediated knockdown of gene expression; type: cell-based, human; conditions: ovarian cancer cell lines
[12] = tested on: Vinexin 13 (AF037261); test: siRNA-mediated knockdown of gene expression; type: cell-based, human; conditions: OVCA 429 cells
[13] = tested on: WDR1 (AB010427); test: siRNA-mediated knockdown of gene expression; type: cell-based, human; conditions: OVCA 429 cells
[14] = tested on: eEF1ε (BC005291); test: siRNA-mediated knockdown of gene expression; type: cell-based, human; conditions: ovarian cancer cell lines
[15] = tested on: e-IF2Bε (BC013590); test: siRNA-mediated knockdown of gene expression; type: cell-based, human; conditions: ovarian cancer cell lines

Sequence of MetAP-2 (Homo sapiens, UniProt P50579) (P50579 whole entry, species assumed): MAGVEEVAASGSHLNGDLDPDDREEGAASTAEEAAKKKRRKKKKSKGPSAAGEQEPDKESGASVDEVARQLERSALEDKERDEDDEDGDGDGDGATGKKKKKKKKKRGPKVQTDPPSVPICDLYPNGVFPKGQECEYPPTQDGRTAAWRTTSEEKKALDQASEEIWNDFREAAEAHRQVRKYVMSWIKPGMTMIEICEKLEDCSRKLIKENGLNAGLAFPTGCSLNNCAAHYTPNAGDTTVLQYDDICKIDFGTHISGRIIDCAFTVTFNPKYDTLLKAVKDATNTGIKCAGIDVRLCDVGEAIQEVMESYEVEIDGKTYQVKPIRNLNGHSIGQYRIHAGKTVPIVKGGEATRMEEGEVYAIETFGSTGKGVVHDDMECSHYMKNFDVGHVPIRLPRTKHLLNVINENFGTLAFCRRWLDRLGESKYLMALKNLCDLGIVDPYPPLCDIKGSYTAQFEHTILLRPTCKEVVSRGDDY

CO[C@@H]1[C@H](OC(=O)NC(=O)CCl)CC[C@]2(CO2)[C@H]1[C@@]1(C)O[C@@H]1CC=C(C)C [TNP-470]
inhibition of the methionine aminopeptidase activity of MetAP-2 [1]: covalently binds to and inhibits | hepatic metastasis of human colon cancer [2]: can be prevented

CO[C@@H]1[C@H](OC(=O)/C=C/C=C/C=C/C=C/C(=O)O)CC[C@]2(CO2)[C@H]1[C@@]1(C)O[C@@H]1CC=C(C)C [fumagillin]
effect on the action of cis-platin ([3]; OVCA 429, 0.1 μg/ml fumagillin, 4 hours): enhancement of the effect of cis-platin | effect on the action of cis-platin ([3]; OVCA 429, 0.1 μg/ml fumagillin, 8 hours): enhancement of the effect of cis-platin | effect on the action of cis-platin ([3]; OVCA 429, 0.1 μg/ml fumagillin, regardless of the length of incubation time (FIGS. 41 and 42)): enhancement of the effect of cis-platin | effect on the action of cis-platin ([3]; OVCA 429, 10 μg/ml fumagillin, regardless of the length of incubation time (FIGS. 41 and 42)): opposite effect | cell survival with fumagillin alone ([3]; OVCA 429, very high concentrations of fumagillin, 4 hours (FIG. 40)): up to 80% | inhibition of the methionine aminopeptidase activity of MetAP-2 [1]: covalently binds to and inhibits | expression of MetAP-2 after treatment [4]: increased expression of MetAP-2

MetAP-2 siRNA #2: siRNA to MetAP-2; target sequence AAGCA CAT CGA CAA GTT AGA A (guide AAGCACATCGACAAGTTAGAA; target site or template, no part of the molecule; listed as DNA, chemistry not given here; listed as Homo Sapiens)
levels of MetAP-2 expression [5]: did not result in a reduction

MetAP-2 siRNA #3: siRNA to MetAP-2; target sequence AAACA GTG CCG ATT GTG AAA G (guide AAACAGTGCCGATTGTGAAAG; target site or template, no part of the molecule; listed as DNA, chemistry not given here; listed as Homo Sapiens)
levels of MetAP-2 expression [5]: did not result in a reduction

NM23D siRNA #3: siRNA to NM23-D; target sequence AATGTCATCCACGCCAGCGAC (guide AATGTCATCCACGCCAGCGAC; target site or template, no part of the molecule; listed as DNA, chemistry not given here; listed as Homo Sapiens)
OVCAR-3: increased sensitivity to cis-platin [6]: yes | reduction of NM23-D mRNA levels compared to control [7]: approximately 50% | 429: increased sensitivity to cis-platin [3]: yes

RNPS1 siRNA #1: siRNA to RNPS1; target sequence AATATTCATACGGCATGGACT (guide SDNAATATTCATACGGCATGGACT; target site or template, no part of the molecule; listed as DNA, chemistry not given here; listed as Homo Sapiens)
reduction in the level of RNPS1 mRNA [8]: 35% | 429: increased sensitivity to cis-platin [3]: yes

S100A11 siRNA #1: siRNA to S100A11; AA AGG ATG GTT ATA ACT ACA C (guide AAAGGATGGTTATAACTACAC; target site or template, no part of the molecule; listed as DNA, chemistry not given here; listed as Homo Sapiens)
knockdown of S100A11 gene expression levels [9]: 50%

S100A11 siRNA #2: siRNA to S100A11; AA GAA ACT GGA CAC CAA CAG T (guide AAGAAACTGGACACCAACAGT; target site or template, no part of the molecule; listed as DNA, chemistry not given here; listed as Homo Sapiens)
knockdown of S100A11 gene expression levels [9]: 25%

SAPK/Erk1 siRNA #2: siRNA to SAPK/Erk1; target sequence AAGCGCATCACGACAAGGATA (guide AAGCGCATCACGACAAGGATA; target site or template, no part of the molecule; listed as DNA, chemistry not given here; listed as Homo Sapiens)
OVCAR-3: increased sensitivity to cis-platin [6]: yes | reduction in the level of SAPK mRNA [10]: 60% | 429: increased sensitivity to cis-platin [3]: yes

SRB1 siRNA #1: siRNA to SRB1; target sequence AAGCAGCAGGTCCTTAAGAAC (guide AAGCAGCAGGTCCTTAAGAAC; target site or template, no part of the molecule; listed as DNA, chemistry not given here; listed as Homo Sapiens)
OVCAR-3: increased sensitivity to cis-platin [6]: yes | reduction in the level of SRB1 mRNA [11]: 60% | 429: increased sensitivity to cis-platin [3]: yes

SRB1 siRNA #3: siRNA to SRB1; target sequence AATTCAGAACGTCAGCACCTG (guide AATTCAGAACGTCAGCACCTG; target site or template, no part of the molecule; listed as DNA, chemistry not given here; listed as Homo Sapiens)
reduction in the level of SRB1 mRNA [11]: successful in reducing the expression of SRB1

Vinexin β siRNA #2: siRNA to Vinexin (AF037261); target sequence AAGAGTTACCTAGAAGCACCT (guide AAGAGTTACCTAGAAGCACCT; target site or template, no part of the molecule; listed as DNA, chemistry not given here; listed as Homo Sapiens)
OVCAR-3: increased sensitivity to cis-platin [6]: yes | reduction of Vinexin mRNA levels compared to control [12]: approximately 50% | 429: increased sensitivity to cis-platin [3]: no

WDR1 siRNA #1: siRNA to WDR1; target sequence AATGGAAAGTGCGTCATCCTA (guide AATGGAAAGTGCGTCATCCTA; target site or template, no part of the molecule; listed as DNA, chemistry not given here; listed as Homo Sapiens)
OVCAR-3: increased sensitivity to cis-platin [6]: yes | reduction of WDR1 mRNA levels compared to control [13]: approximately 85% | 429: increased sensitivity to cis-platin [3]: no

WDR1 siRNA #2: siRNA to WDR1; target sequence AAGTTCACAATTGGCGACCAC (guide AAGTTCACAATTGGCGACCAC; target site or template, no part of the molecule; listed as DNA, chemistry not given here; listed as Homo Sapiens)
reduction of WDR1 mRNA levels compared to control [13]: approximately 75%

WDR1 siRNA #3: siRNA to WDR1; target sequence AAGTGCTTCAGCATCGACAAC (guide AAGTGCTTCAGCATCGACAAC; target site or template, no part of the molecule; listed as DNA, chemistry not given here; listed as Homo Sapiens)
reduction of WDR1 mRNA levels compared to control [13]: approximately 70%

eEF1ε siRNA #1: siRNA to eEF1ε; target sequence AACAGGATTGACTACTATAGC (guide AACAGGATTGACTACTATAGC; target site or template, no part of the molecule; listed as DNA, chemistry not given here; listed as Homo Sapiens)
reduction in the level of eEF1ε mRNA [14]: 65%

eEF1ε siRNA #2: siRNA to eEF1ε; target sequence AATACAGGGTCACTCAAGTAG (guide AATACAGGGTCACTCAAGTAG; target site or template, no part of the molecule; listed as DNA, chemistry not given here; listed as Homo Sapiens)
reduction in the level of eEF1ε mRNA [14]: successful in reducing the expression of eEF1ε

eIF2Bε siRNA #1: siRNA to e-IF2Bε; target sequence AATGTGGTTCGAATAATTACA (guide AATGTGGTTCGAATAATTACA; target site or template, no part of the molecule; listed as DNA, chemistry not given here; listed as Homo Sapiens)
OVCAR-3: increased sensitivity to cis-platin [6]: yes | reduction in the level of e-IF2Bε mRNA [15]: 57% | 429: increased sensitivity to cis-platin [3]: yes

eIF2Bε siRNA #2: siRNA to e-IF2Bε; target sequence AAACTCGAGATGACTTTGTGC (guide AAACTCGAGATGACTTTGTGC; target site or template, no part of the molecule; listed as DNA, chemistry not given here; listed as Homo Sapiens)
reduction in the level of e-IF2Bε mRNA [15]: 54%

eIF2Bε siRNA #3: siRNA to e-IF2Bε; target sequence AATCAACAGCTGCAGAGGTTC (guide AATCAACAGCTGCAGAGGTTC; target site or template, no part of the molecule; listed as DNA, chemistry not given here; listed as Homo Sapiens)
reduction in the level of e-IF2Bε mRNA [15]: 43%
